Test: in vitro
Conditions: human, hek293t cells

Row | Structure (SMILES) | viability at 48 h, 25 µM [%]
1 | CCn1nc(C)c(CNC(=O)CCl)c1C [7-P10, 2-chloro-N-[(1-ethyl-3,5-dimethyl-1H-pyrazol-4-yl)methyl]acetamide] | 30
2 | C=CC(=O)N1CCC(c2ccnn2C)CC1 [2-I15, 1-[4-(1-methyl-1H-pyrazol-5-yl)piperidin-1-yl]prop-2-en-1-one] | 96.5
3 | C=CC(=O)N1CCOC(c2cnn(C)c2)C1 (centres unmarked) [3-K11, 1-[2-(1-methyl-1H-pyrazol-4-yl)morpholin-4-yl]prop-2-en-1-one] | 49.9
4 | Cc1ccccc1N1C(=O)C=CC1=O [10-J13, 1-(2-methylphenyl)-2,5-dihydro-1H-pyrrole-2,5-dione] | 109
5 | C=CC(=O)NC1(c2ccccc2)CCCC1 [1-O15, N-(1-phenylcyclopentyl)prop-2-enamide] | 95.6
6 | CC(C)NC(=O)C(C#N)=Cc1ccc(-c2ccc([N+](=O)[O-])cc2)s1 [9-B16, 2-cyano-3-[5-(4-nitrophenyl)thiophen-2-yl]-N-(propan-2-yl)prop-2-enamide] | 99.6
7 | COc1ccc2[nH]c3c(c2c1)CCCC3NC(=O)CCl (centres unmarked) [5-G07, 2-chloro-N-(6-methoxy-2,3,4,9-tetrahydro-1H-carbazol-1-yl)acetamide] | 0.129
8 | C=CC(=O)NCCC(=O)Nc1c(C)c(C)nn1C [2-G12, N-{2-[(1,3,4-trimethyl-1H-pyrazol-5-yl)carbamoyl]ethyl}prop-2-enamide] | 93
9 | C=CC(=O)N1CCC(C(=O)NCC(C)(C)C=C)CC1 [2-G04, N-(2,2-dimethylbut-3-en-1-yl)-1-(prop-2-enoyl)piperidine-4-carboxamide] | 84.5
10 | C=CC(=O)NCc1ccc(C(=O)N2CCOCC2)cc1 [1-L17, N-{[4-(morpholine-4-carbonyl)phenyl]methyl}prop-2-enamide] | 81.2
11 | N#CC(=Cc1ccccc1)C(=O)NC1CCCCCCC1 [8-G17, 2-cyano-N-cyclooctyl-3-phenylprop-2-enamide] | 46.6
12 | O=C(CCl)Cc1c(F)cccc1Cl [10-D20, 1-chloro-3-(2-chloro-6-fluorophenyl)propan-2-one] | 37
13 | O=C(CCl)NCCc1ncc(F)cn1 [6-E19, 2-chloro-N-[2-(5-fluoropyrimidin-2-yl)ethyl]acetamide] | 104
14 | CC(Cl)C(=O)NCCc1nc2cc(F)ccc2s1 (centres unmarked) [7-P11, 2-chloro-N-[2-(5-fluoro-1,3-benzothiazol-2-yl)ethyl]propanamide] | 89.1
15 | C=CC(=O)N(Cc1cccc(F)c1F)C1CCCC(F)(F)C1 (centres unmarked) [1-N13, N-(3,3-difluorocyclohexyl)-N-[(2,3-difluorophenyl)methyl]prop-2-enamide] | 136
16 | CC(Cl)C(=O)N1CCNC(=O)C1Cc1nc2ccccc2o1 (centres unmarked) [6-P03, 3-[(1,3-benzoxazol-2-yl)methyl]-4-(2-chloropropanoyl)piperazin-2-one] | 110
17 | Cc1noc(C)c1S(=O)(=O)N1CCCN(C(=O)C(C)Cl)CC1 (centres unmarked) [7-O11, 2-chloro-1-{4-[(3,5-dimethyl-1,2-oxazol-4-yl)sulfonyl]-1,4-diazepan-1-yl}propan-1-one] | 89.5
18 | C=CC(=O)Nc1ccc2c(c1)SCC(=O)N2 [1-C22, N-(3-oxo-3,4-dihydro-2H-1,4-benzothiazin-7-yl)prop-2-enamide] | 109
19 | CC(C)C(NC(=O)CCl)c1ccc(F)cc1 (centres unmarked) [4-E13, 2-chloro-N-[1-(4-fluorophenyl)-2-methylpropyl]acetamide] | 1.68
20 | C=CC(=O)NC1(C(N)=O)Cc2ccccc2C1 [2-D15, 2-(prop-2-enamido)-2,3-dihydro-1H-indene-2-carboxamide] | 69.7
21 | N#CC(=Cc1cccnc1)C(=O)NCCc1ccccc1 [9-K14, 2-cyano-N-(2-phenylethyl)-3-(pyridin-3-yl)prop-2-enamide] | 89.3
22 | N#CC(=Cc1c(Cl)cccc1Cl)C(=O)Nc1nccs1 [8-P09, 2-cyano-3-(2,6-dichlorophenyl)-N-(1,3-thiazol-2-yl)prop-2-enamide] | 109
23 | CC(NC(=O)CCl)c1ccc2c(c1)CCCC2 (centres unmarked) [4-B03, 2-chloro-N-[1-(5,6,7,8-tetrahydronaphthalen-2-yl)ethyl]acetamide] | 1.06
24 | C=CC(=O)N1CC(C)c2ccc(S(N)(=O)=O)cc21 (centres unmarked) [3-L16, 3-methyl-1-(prop-2-enoyl)-2,3-dihydro-1H-indole-6-sulfonamide] | 1.43
25 | C=CC(=O)N(CC)CC(=O)NC1CCN(C(C)=O)c2ccccc21 (centres unmarked) [2-N06, N-{[(1-acetyl-1,2,3,4-tetrahydroquinolin-4-yl)carbamoyl]methyl}-N-ethylprop-2-enamide] | 99.7
26 | COCC(C)n1c(C)cc(C=C(C#N)C(=O)NS(C)(=O)=O)c1C (centres unmarked) [8-B04, 2-cyano-N-methanesulfonyl-3-[1-(1-methoxypropan-2-yl)-2,5-dimethyl-1H-pyrrol-3-yl]prop-2-enamide] | 94.8
27 | C=CC(=O)Nc1cc(OC)ccc1C(=O)N(C)OC [1-J14, N,4-dimethoxy-N-methyl-2-(prop-2-enamido)benzamide] | 74.9

Row | Structure (SMILES) | viability at 48 h, 25 µM [%]
28 | O=C(CCl)COc1ccc(Cl)cc1 [10-M17, 1-chloro-3-(4-chlorophenoxy)propan-2-one] | 26.1
29 | O=C(CCl)Cc1ccc(Cl)cc1Cl [10-A15, 1-chloro-3-(2,4-dichlorophenyl)propan-2-one] | 0.248
30 | C=CC(=O)NC(C)c1nnnn1C1CC1 (centres unmarked) [1-M09, N-[1-(1-cyclopropyl-1H-1,2,3,4-tetrazol-5-yl)ethyl]prop-2-enamide] | 82.7
31 | O=C(CCl)NC1CCCCCC1 [5-H16, 2-chloro-N-cycloheptylacetamide] | 17.7
32 | CCOc1ccc(NC(=O)C(C#N)=Cc2ccc(F)cc2)cc1 [8-N07, 2-cyano-N-(4-ethoxyphenyl)-3-(4-fluorophenyl)prop-2-enamide] | 102
33 | CN(C)c1ccc(C=C(C#N)C(=O)N2CCC2)cc1 [9-A14, 2-(azetidine-1-carbonyl)-3-[4-(dimethylamino)phenyl]prop-2-enenitrile] | 106
34 | CN(C)S(=O)(=O)c1cc(NC(=O)CCl)ccc1Cl [5-E13, 2-chloro-N-[4-chloro-3-(dimethylsulfamoyl)phenyl]acetamide] | 0.0364
35 | CC(Cl)C(=O)N1CC(=O)Nc2ccccc21 (centres unmarked) [6-E07, 4-(2-chloropropanoyl)-1,2,3,4-tetrahydroquinoxalin-2-one] | 117
36 | Cc1cc(C=C(C#N)C(=O)N2CC[C@H](O)C2)c(C)n1CC1CCCO1 (stereo partly drawn) [9-P04, 3-{2,5-dimethyl-1-[(oxolan-2-yl)methyl]-1H-pyrrol-3-yl}-2-[(3S)-3-hydroxypyrrolidine-1-carbonyl]prop-2-enenitrile] | 131
37 | CCCCNC(=O)C(C#N)=Cc1ccc(Cl)cc1Cl [9-O07, N-butyl-2-cyano-3-(2,4-dichlorophenyl)prop-2-enamide] | 69
38 | C=CC(=O)NCc1cn(-c2ccccc2)nn1 [2-I13, N-[(1-phenyl-1H-1,2,3-triazol-4-yl)methyl]prop-2-enamide] | 76.1
39 | C#Cc1cccc(N(Cc2cc3n(n2)CCCO3)C(=O)CCl)c1 [5-O10, 2-chloro-N-(3-ethynylphenyl)-N-({5H,6H,7H-pyrazolo[3,2-b][1,3]oxazin-2-yl}methyl)acetamide] | 0.703
40 | CCC1SC(=C(C#N)C(=O)NC)N(c2ccc(Cl)cc2)C1=O (centres unmarked) [8-L15, 2-[3-(4-chlorophenyl)-5-ethyl-4-oxo-1,3-thiazolidin-2-ylidene]-2-cyano-N-methylacetamide] | 132
41 | C=CC(=O)Nc1cc(NC(=O)C2(OC)CCOC2)ccc1F (centres unmarked) [3-D05, N-[4-fluoro-3-(prop-2-enamido)phenyl]-3-methoxyoxolane-3-carboxamide] | 75.8
42 | C=CC(=O)N(C)Cc1cccc(Cl)c1 [2-G09, N-[(3-chlorophenyl)methyl]-N-methylprop-2-enamide] | 60.6
43 | O=C(CCl)Nc1c(Cl)cc(Cl)cc1Cl [5-B16, 2-chloro-N-(2,4,6-trichlorophenyl)acetamide] | 123
44 | Cc1cccc(C=C(C#N)C(=O)Nc2ccc(F)cc2)c1 [9-I19, 2-cyano-N-(4-fluorophenyl)-3-(3-methylphenyl)prop-2-enamide] | 113
45 | C=CC(=O)NC(C)(Cn1cccn1)C(N)=O (centres unmarked) [1-A20, N-{1-carbamoyl-1-[(1H-pyrazol-1-yl)methyl]ethyl}prop-2-enamide] | 113
46 | Cc1nn(-c2ccccc2)c(Cl)c1C=C(C#N)C(=O)NC(C)C [9-J17, 3-(5-chloro-3-methyl-1-phenyl-1H-pyrazol-4-yl)-2-cyano-N-(propan-2-yl)prop-2-enamide] | 98.2
47 | Cc1ccccc1NC(=O)C(C#N)=Cc1cccc2ccccc12 [8-H09, 2-cyano-N-(2-methylphenyl)-3-(naphthalen-1-yl)prop-2-enamide] | 88.4
48 | O=C(CCl)NCC(F)(F)c1cccnc1 [6-C21, 2-chloro-N-[2,2-difluoro-2-(pyridin-3-yl)ethyl]acetamide] | 104
49 | O=C(CCl)N(Cc1ccccc1)Cc1cc2n(n1)CCCC2 [5-L03, N-benzyl-2-chloro-N-({4H,5H,6H,7H-pyrazolo[1,5-a]pyridin-2-yl}methyl)acetamide] | 0.904
50 | C=CC(=O)N1CCC(c2ccc(OC)cc2)C1 (centres unmarked) [1-N16, 1-[3-(4-methoxyphenyl)pyrrolidin-1-yl]prop-2-en-1-one] | 92.1
51 | CC(Cl)C(=O)N1CCN(Cc2cc(=O)n3ccsc3n2)CC1 (centres unmarked) [6-P17, 7-{[4-(2-chloropropanoyl)piperazin-1-yl]methyl}-5H-[1,3]thiazolo[3,2-a]pyrimidin-5-one] | 113
52 | Cc1ncc(CNC(=O)C(C)Cl)n1C (centres unmarked) [5-J15, 2-chloro-N-[(1,2-dimethyl-1H-imidazol-5-yl)methyl]propanamide] | 106
53 | Cc1nn(C)c(C)c1C(NC(=O)CCl)C(F)(F)F (centres unmarked) [5-M18, 2-chloro-N-[2,2,2-trifluoro-1-(1,3,5-trimethyl-1H-pyrazol-4-yl)ethyl]acetamide] | 1.44
